Test results as given in patent publication US20100184769A1, “PDE INHIBITORS FOR THE TREATMENT OF HEARING IMPAIRMENT” (BAYER SCHERING PHARMA AKTIENGESELLSCHAFT, priority 2007, published 2010).

Test system: acustic trauma and threshold levels of rats
Experiment: Acoustic trauma (AT) in rats, hearing thresholds by auditory brainstem responses (ABR)
Assay type: in vivo, female Sprague Dawley Rats
Conditions: 10 mg/kg p.o. twice daily
Experimental: All animal experiments were performed due to the “German Law for the Protection of Laboratory animals” and were conducted due to the approved guidelines for Animal Health and Welfare. Experiments were performed with female Sprague Dawley Rats with a body weight between 300-400 g. For induction of acoustic trauma (AT) animals were kept under anesthezia (Ketamine, Xylazin, Rompun i.p. injection) and exposed to band noise or pure tones using a calibrated loudspeaker inside a reverberating chamber. The sound consists of a continuous 10 kHz pure-tone presented at 115 dB SPL. All acoustic stimuli were calibrated at the head level of the animal. Rats were treated with either Vardenafil [10 mg/kg/ p.o. dissolved in Ethanol/Solutol/Water (10/40/50) with an application volume of 5 ml/kg] or Placebo [Ethanol/Solutol/Water (10/40/50) with an application volume of 5 ml/kg] twice daily. The first treatment with Vardenafil or Placebo was i.e. 1 h prior to AT. The development and progression/remission of hearing impairment was detected by measuring the hearing thresholds by recordings of auditory brainstem responses (ABR). The threshold was determined by the lowest sound pressure that produced ARBs distinct from noise level. Threshold level analysis was performed prior to the acustic trauma (AT) (Measurement A in table 1), 3-5 hours post AT (Measurement B in table 1), once daily, from day 1 to day 7 post AT (Measurement C to I in table 1) and finally 3 weeks post AT (Measurement J in table 1).

CCCc1nc(C)c2c(=O)[nH]c(-c3cc(S(=O)(=O)N4CCN(CC)CC4)ccc3OCC)nn12 [Vardenafil, 2-(2-Ethoxy-5-(4-ethylpiperazin-1-yl-1-sulfonyl)phenyl)-5-methyl-7-propyl-3H-imidazo (5,1-f) (1,2,4)triazin-4-one]
Hearing Threshold, Measurement B (3-5 hours post AT, first treatment 1 h prior to AT): 38.6 dB SPL | Hearing Threshold, Measurement J (3 weeks post AT): 8.1 dB SPL | Hearing Threshold, Measurement C (day 1 post AT): 28.3 dB SPL | Hearing Threshold, Measurement D (day 2 post AT): 19.5 dB SPL | Hearing Threshold, Measurement E (day 3 post AT): 16.5 dB SPL | Hearing Threshold, Measurement F (day 4 post AT): 14.3 dB SPL | Hearing Threshold, Measurement G (day 5 post AT): 12.4 dB SPL | Hearing Threshold, Measurement H (day 6 post AT): 11.2 dB SPL | Hearing Threshold, Measurement I (day 7 post AT): 10.9 dB SPL | Hearing Threshold, Measurement A (prior to acustic trauma (AT)): 5.9 dB SPL
